# Assay results reported in article PMC5218480 (PLoS ONE, 2017).
# Test system: MV-4-11 cells
# Assay: Gene expression microarray analysis (Affymetrix PrimeView) and GSEA
# Type: cell-based, human
# Set-up: RFU PODN (11730768_x_at) / Fold change /veh PODN (11730768_x_at) / RFU LINC00158 (11744669_a_at) / Fold change /veh LINC00158 (11744669_a_at) / RFU DUSP10 (11751237_a_at) / Fold change /veh DUSP10 (11751237_a_at) / RFU ID3 (11757404_x_at) / Fold change /veh ID3 (11757404_x_at) / RFU PLEKHG5 (11737974_s_at) / Fold change /veh PLEKHG5 (11737974_s_at) / RFU LRRC4B (11730491_at) / Fold change /veh LRRC4B (11730491_at) / RFU GIMAP4 (11747438_a_at) / Fold change /veh GIMAP4 (11747438_a_at) / RFU KRT8 (11758183_x_at) / Fold change /veh KRT8 (11758183_x_at) / RFU CNN1 (11734310_a_at) / Fold change /veh CNN1 (11734310_a_at) / RFU VPS37D (11726825_at) / Fold change /veh VPS37D (11726825_at) / RFU C10orf10 (11716522_x_at) / Fold change /veh C10orf10 (11716522_x_at) / RFU KIR2DL2 /// KIR2DL4 /// KIR2DL5A /// KIR2DL5B /// KIR2DS1 /// KIR2DS2 /// KIR2DS3 /// KIR2DS4 /// KIR3DL3 /// KIR3DL3 /// KIR3DS1 (11738374_at) / Fold change /veh KIR2DL2 /// KIR2DL4 /// KIR2DL5A /// KIR2DL5B /// KIR2DS1 /// KIR2DS2 /// KIR2DS3 /// KIR2DS4 /// KIR3DL3 /// KIR3DL3 /// KIR3DS1 (11738374_at) / RFU C1QL1 (11718748_at) / Fold change /veh C1QL1 (11718748_at) / RFU TMPRSS4 (11747572_a_at) / Fold change /veh TMPRSS4 (11747572_a_at) / RFU HAMP (11756126_x_at) / Fold change /veh HAMP (11756126_x_at) / RFU RNFT2 (11725882_a_at) / Fold change /veh RNFT2 (11725882_a_at) / RFU NR4A2 (11747474_a_at) / Fold change /veh NR4A2 (11747474_a_at) / RFU ABCC12 (11746883_a_at) / Fold change /veh ABCC12 (11746883_a_at) / RFU TMEM136 (11760407_x_at) / Fold change /veh TMEM136 (11760407_x_at) / RFU CLDN22 /// WWC2 (11732394_at) / Fold change /veh CLDN22 /// WWC2 (11732394_at) / RFU HLA-DPB1 (11760878_x_at) / Fold change /veh HLA-DPB1 (11760878_x_at) / RFU SPINT1 (11716480_a_at) / Fold change /veh SPINT1 (11716480_a_at) / RFU GAP43 (11754022_s_at) / Fold change /veh GAP43 (11754022_s_at) / RFU A4GNT (11735810_at) / Fold change /veh A4GNT (11735810_at) / RFU PRB3 (11715151_x_at) / Fold change /veh PRB3 (11715151_x_at) / RFU TUBB4B (11761932_at) / Fold change /veh TUBB4B (11761932_at) / RFU CAPN14 (11732068_a_at) / Fold change /veh CAPN14 (11732068_a_at) / RFU TMCC2 (11721928_a_at) / Fold change /veh TMCC2 (11721928_a_at) / RFU IRGQ (11745062_a_at) / Fold change /veh IRGQ (11745062_a_at) / RFU FAM174B (11720279_a_at) / Fold change /veh FAM174B (11720279_a_at) / RFU TMPRSS4 (11748680_a_at) / Fold change /veh TMPRSS4 (11748680_a_at) / RFU FAM212B (11763350_a_at) / Fold change /veh FAM212B (11763350_a_at) / RFU PLEKHG5 (11743358_a_at) / Fold change /veh PLEKHG5 (11743358_a_at) / RFU ZSCAN30 (11745921_a_at) / Fold change /veh ZSCAN30 (11745921_a_at) / RFU CMKLR1 (11741424_a_at) / Fold change /veh CMKLR1 (11741424_a_at) / RFU LOC101060620 /// MAPK8IP1 (11723275_at) / Fold change /veh LOC101060620 /// MAPK8IP1 (11723275_at) / RFU SPTSSB (11747773_x_at) / Fold change /veh SPTSSB (11747773_x_at) / RFU PRSS12 (11739890_at) / Fold change /veh PRSS12 (11739890_at) / RFU BIN1 (11741810_x_at) / Fold change /veh BIN1 (11741810_x_at) / RFU WNT11 (11732464_a_at) / Fold change /veh WNT11 (11732464_a_at) / RFU C10orf10 (11716521_a_at) / Fold change /veh C10orf10 (11716521_a_at) / RFU C5orf56 (11738089_at) / Fold change /veh C5orf56 (11738089_at) / RFU CYB561 (11721691_x_at) / Fold change /veh CYB561 (11721691_x_at) / RFU ANKRD19P (11752326_a_at) / Fold change /veh ANKRD19P (11752326_a_at) / RFU OR2T12 /// OR2T33 /// OR2T8 (11738714_s_at) / Fold change /veh OR2T12 /// OR2T33 /// OR2T8 (11738714_s_at) / RFU VCAN (11748164_a_at) / Fold change /veh VCAN (11748164_a_at) / RFU JSRP1 (11732532_at) / Fold change /veh JSRP1 (11732532_at) / RFU KRTAP10-11 (11738290_x_at) / Fold change /veh KRTAP10-11 (11738290_x_at) / RFU MYO3A (11730013_a_at) / Fold change /veh MYO3A (11730013_a_at) / RFU EBF3 (11725865_a_at) / Fold change /veh EBF3 (11725865_a_at) / RFU CAMK2N1 (11719241_x_at) / Fold change /veh CAMK2N1 (11719241_x_at) / RFU C5orf56 (11738088_a_at) / Fold change /veh C5orf56 (11738088_a_at) / RFU OLFML3 (11715873_a_at) / Fold change /veh OLFML3 (11715873_a_at) / RFU LOC100653217 /// NTM (11731650_a_at) / Fold change /veh LOC100653217 /// NTM (11731650_a_at) / RFU MAPK11 (11762145_a_at) / Fold change /veh MAPK11 (11762145_a_at) / RFU FIZ1 (11724087_x_at) / Fold change /veh FIZ1 (11724087_x_at) / RFU OASL (11726364_x_at) / Fold change /veh OASL (11726364_x_at) / RFU SOX15 (11748057_x_at) / Fold change /veh SOX15 (11748057_x_at) / RFU CD79A (11719716_a_at) / Fold change /veh CD79A (11719716_a_at) / RFU HIST1H1D (11736915_at) / Fold change /veh HIST1H1D (11736915_at) / RFU CASKIN2 (11723855_a_at) / Fold change /veh CASKIN2 (11723855_a_at) / RFU LOC730098 (11760151_x_at) / Fold change /veh LOC730098 (11760151_x_at) / RFU OR4N2 (11742367_at) / Fold change /veh OR4N2 (11742367_at) / RFU PRRT2 (11749266_a_at) / Fold change /veh PRRT2 (11749266_a_at) / RFU SNX32 (11753110_a_at) / Fold change /veh SNX32 (11753110_a_at) / RFU CDHR5 (11726645_a_at) / Fold change /veh CDHR5 (11726645_a_at) / RFU RCAN1 (11760418_a_at) / Fold change /veh RCAN1 (11760418_a_at) / RFU FAM167A (11723789_a_at) / Fold change /veh FAM167A (11723789_a_at) / RFU FAM26E (11764081_at) / Fold change /veh FAM26E (11764081_at) / RFU ISYNA1 (11749810_s_at) / Fold change /veh ISYNA1 (11749810_s_at) / RFU ACY1 (11761880_at) / Fold change /veh ACY1 (11761880_at) / RFU 11764098_at / Fold change /veh 11764098_at / RFU SAMD14 (11745864_x_at) / Fold change /veh SAMD14 (11745864_x_at) / RFU NPB (11741838_a_at) / Fold change /veh NPB (11741838_a_at) / RFU TMPRSS6 (11731388_a_at) / Fold change /veh TMPRSS6 (11731388_a_at) / RFU KRTAP10-2 (11738614_at) / Fold change /veh KRTAP10-2 (11738614_at) / RFU ARHGAP8 /// PRR5-ARHGAP8 (11727945_x_at) / Fold change /veh ARHGAP8 /// PRR5-ARHGAP8 (11727945_x_at) / RFU KRTAP5-7 /// NADSYN1 (11734609_at) / Fold change /veh KRTAP5-7 /// NADSYN1 (11734609_at) / RFU RASL12 (11751679_a_at) / Fold change /veh RASL12 (11751679_a_at) / RFU CDKN2B (11736163_a_at) / Fold change /veh CDKN2B (11736163_a_at) / RFU PRF1 (11729649_at) / Fold change /veh PRF1 (11729649_at) / RFU, ZNF638 /// ZNF638-IT1 / Fold change vs veh, ZNF638 /// ZNF638-IT1 / RFU, PANK3 / Fold change vs veh, PANK3 / RFU, SH3YL1 / Fold change vs veh, SH3YL1 / RFU, ZEB2 / Fold change vs veh, ZEB2 / RFU, NRIP1 / Fold change vs veh, NRIP1 / RFU, PTTG1IP / Fold change vs veh, PTTG1IP / RFU, CAPN2 / Fold change vs veh, CAPN2 / RFU, MED14 / Fold change vs veh, MED14 / RFU, SNORA58 / Fold change vs veh, SNORA58 / RFU, C1orf63 / Fold change vs veh, C1orf63 / RFU, LRRFIP1 / Fold change vs veh, LRRFIP1 / RFU, NDUFAF7 / Fold change vs veh, NDUFAF7 / RFU, SLC12A2 / Fold change vs veh, SLC12A2 / RFU, IBTK / Fold change vs veh, IBTK / RFU, ESF1 / Fold change vs veh, ESF1 / Fold change vs veh, TMEM50B / RFU, TAOK1 / Fold change vs veh, TAOK1 / RFU, ACBD3 / Fold change vs veh, ACBD3 / RFU, TMA16 / Fold change vs veh, TMA16 / RFU, RWDD3 / Fold change vs veh, RWDD3 / RFU, BCAT1 / Fold change vs veh, BCAT1 / RFU, EDEM3 / Fold change vs veh, EDEM3 / RFU, TMEM33 / Fold change vs veh, TMEM33 / RFU, WDR75 / Fold change vs veh, WDR75 / RFU, AHCTF1 / Fold change vs veh, AHCTF1 / RFU, TFRC / Fold change vs veh, TFRC / RFU, ZDHHC17 / Fold change vs veh, ZDHHC17 / RFU, NOM1 / Fold change vs veh, NOM1 / RFU, ARL8B / Fold change vs veh, ARL8B / RFU, ZBTB11 / Fold change vs veh, ZBTB11 / RFU, TAMM41 / Fold change vs veh, TAMM41 / RFU, KIAA1704 /// LOC100996395 / Fold change vs veh, KIAA1704 /// LOC100996395 / RFU, ING1 / Fold change vs veh, ING1 / RFU, TRMT61B / Fold change vs veh, TRMT61B / RFU, FUBP3 / Fold change vs veh, FUBP3 / RFU, TP53 / Fold change vs veh, TP53 / RFU, TNKS2 / Fold change vs veh, TNKS2 / RFU, ZFP14 / Fold change vs veh, ZFP14 / RFU, ACTR2 / Fold change vs veh, ACTR2 / RFU, PPP3R1 / Fold change vs veh, PPP3R1 / RFU, PIK3R1 / Fold change vs veh, PIK3R1 / RFU, HNRNPA1 / Fold change vs veh, HNRNPA1 / RFU, RNF170 / Fold change vs veh, RNF170 / RFU, ZNF28 / Fold change vs veh, ZNF28 / RFU, RNGTT / Fold change vs veh, RNGTT / RFU, OGT / Fold change vs veh, OGT / RFU, BRD1 / Fold change vs veh, BRD1 / RFU, MARS / Fold change vs veh, MARS / RFU, ZNF655 / Fold change vs veh, ZNF655 / RFU, FAHD1 / Fold change vs veh, FAHD1 / RFU, BDP1 / Fold change vs veh, BDP1 / RFU, LRRCC1 / Fold change vs veh, LRRCC1 / RFU, ARID1A / Fold change vs veh, ARID1A / RFU, ZNF146 / Fold change vs veh, ZNF146 / RFU, ZNF330 / Fold change vs veh, ZNF330 / RFU, GPN3 / Fold change vs veh, GPN3 / RFU, C9orf123 / Fold change vs veh, C9orf123 / RFU, N4BP2L2 / Fold change vs veh, N4BP2L2 / RFU, ARFIP1 / Fold change vs veh, ARFIP1 / RFU, FAM179B / Fold change vs veh, FAM179B / RFU, BCL10 / Fold change vs veh, BCL10 / RFU, UHRF1BP1L / Fold change vs veh, UHRF1BP1L / RFU, BET1 / Fold change vs veh, BET1 / RFU, CNOT2 / Fold change vs veh, CNOT2 / RFU, ZNF268 / Fold change vs veh, ZNF268 / Fold change vs veh, ZNF507 / RFU, DGCR2 / Fold change vs veh, DGCR2 / RFU, WDSUB1 / Fold change vs veh, WDSUB1 / Fold change vs veh, HSP90B1 /// MIR3652 / RFU, ADSS / Fold change vs veh, ADSS / RFU, GK / Fold change vs veh, GK / RFU, ZNF148 / Fold change vs veh, ZNF148 / RFU, TAF9 / Fold change vs veh, TAF9 / RFU, SLC1A5 / Fold change vs veh, SLC1A5 / RFU, SLMO2 / Fold change vs veh, SLMO2 / RFU, ABCC4 / Fold change vs veh, ABCC4 / RFU, LOC101060439 /// RAP1B / Fold change vs veh, LOC101060439 /// RAP1B / RFU, RFX7 / Fold change vs veh, RFX7 / RFU, GTPBP10 / Fold change vs veh, GTPBP10 / RFU, CNEP1R1 / Fold change vs veh, CNEP1R1 / RFU, BIVM-ERCC5 /// ERCC5 / Fold change vs veh, BIVM-ERCC5 /// ERCC5 / RFU, ILF3 / Fold change vs veh, ILF3 / RFU 11762660_at / Fold change /veh 11762660_at / RFU VCAN (11757783_s_at) / Fold change /veh VCAN (11757783_s_at) / RFU DDX43 (11728927_at) / Fold change /veh DDX43 (11728927_at) / RFU KRT8 (11758188_x_at) / Fold change /veh KRT8 (11758188_x_at) / RFU NKD1 (11759106_at) / Fold change /veh NKD1 (11759106_at) / RFU SRD5A1 (11742802_a_at) / Fold change /veh SRD5A1 (11742802_a_at) / RFU TPSAB1 /// TPSB2 (11721975_s_at) / Fold change /veh TPSAB1 /// TPSB2 (11721975_s_at) / RFU GSTM3 (11746129_a_at) / Fold change /veh GSTM3 (11746129_a_at) / RFU IL23R (11737362_x_at) / Fold change /veh IL23R (11737362_x_at) / RFU TMEM51 (11727254_a_at) / Fold change /veh TMEM51 (11727254_a_at) / RFU PIWIL2 (11732686_x_at) / Fold change /veh PIWIL2 (11732686_x_at) / RFU ORM1 (11744905_x_at) / Fold change /veh ORM1 (11744905_x_at) / RFU CCDC152 (11743942_at) / Fold change /veh CCDC152 (11743942_at) / RFU ECM1 (11717891_a_at) / Fold change /veh ECM1 (11717891_a_at) / RFU IL23R (11748794_a_at) / Fold change /veh IL23R (11748794_a_at) / RFU TNFAIP8L3 (11732012_x_at) / Fold change /veh TNFAIP8L3 (11732012_x_at) / RFU MBOAT4 (11741988_at) / Fold change /veh MBOAT4 (11741988_at) / RFU 11764193_at / Fold change /veh 11764193_at / RFU TMEM53 (11763286_at) / Fold change /veh TMEM53 (11763286_at) / RFU MAGEB2 (11727129_at) / Fold change /veh MAGEB2 (11727129_at) / RFU TMEM200A (11744735_a_at) / Fold change /veh TMEM200A (11744735_a_at) / RFU CCDC152 (11751479_a_at) / Fold change /veh CCDC152 (11751479_a_at) / RFU FAM211A (11726209_a_at) / Fold change /veh FAM211A (11726209_a_at) / RFU RGS16 (11746705_a_at) / Fold change /veh RGS16 (11746705_a_at) / RFU VCAN (11755009_s_at) / Fold change /veh VCAN (11755009_s_at) / RFU RHOB (11743442_s_at) / Fold change /veh RHOB (11743442_s_at) / RFU RGS16 (11720943_a_at) / Fold change /veh RGS16 (11720943_a_at) / RFU RGS16 (11720944_at) / Fold change /veh RGS16 (11720944_at) / RFU, VPS4B / Fold change vs veh, VPS4B / RFU, CREB1 / Fold change vs veh, CREB1 / RFU, DNAJC13 / Fold change vs veh, DNAJC13 / RFU, GNAQ / Fold change vs veh, GNAQ / RFU, CDK5R1 / Fold change vs veh, CDK5R1 / RFU, ZRANB3 / Fold change vs veh, ZRANB3 / RFU, CUL4A / Fold change vs veh, CUL4A / RFU, CCNY / Fold change vs veh, CCNY / RFU, UFL1 / Fold change vs veh, UFL1 / RFU, COG3 / Fold change vs veh, COG3 / RFU, DIAPH2 / Fold change vs veh, DIAPH2 / RFU, SKA2 / Fold change vs veh, SKA2 / RFU, AFF3 / Fold change vs veh, AFF3 / RFU, LMF1 / Fold change vs veh, LMF1 / RFU, IPO11 / Fold change vs veh, IPO11 / RFU, DFFB / Fold change vs veh, DFFB / RFU, FOXP1 / Fold change vs veh, FOXP1 / RFU, CARD8 / Fold change vs veh, CARD8 / RFU, STRN3 / Fold change vs veh, STRN3 / RFU, ADK / Fold change vs veh, ADK / RFU, RASSF2 / Fold change vs veh, RASSF2 / RFU, WIPF1 / Fold change vs veh, WIPF1 / RFU, LARP1B / Fold change vs veh, LARP1B / RFU, RASA1 / Fold change vs veh, RASA1 / RFU, RB1 / Fold change vs veh, RB1 / RFU, PPFIA1 / Fold change vs veh, PPFIA1 / RFU, MAT2A / Fold change vs veh, MAT2A / RFU, CCT5 / Fold change vs veh, CCT5 / RFU, WDR92 / Fold change vs veh, WDR92 / RFU, CUX1 / Fold change vs veh, CUX1 / RFU, TTC7A / Fold change vs veh, TTC7A / RFU, TMEM135 / Fold change vs veh, TMEM135 / RFU, DEPTOR / Fold change vs veh, DEPTOR / RFU, CPM / Fold change vs veh, CPM / RFU, DNAJB6 / Fold change vs veh, DNAJB6 / RFU, CACNA2D3 / Fold change vs veh, CACNA2D3 / RFU, DTX4 / Fold change vs veh, DTX4 / RFU, TFCP2 / Fold change vs veh, TFCP2 / RFU, GMCL1 /// GMCL1P1 / Fold change vs veh, GMCL1 /// GMCL1P1 / RFU, AEBP2 / Fold change vs veh, AEBP2 / RFU, SNHG1 /// SNORD22 /// SNORD25 /// SNORD26 /// SNORD27 /// SNORD28 /// SNORD29 /// SNORD31 / Fold change vs veh, SNHG1 /// SNORD22 /// SNORD25 /// SNORD26 /// SNORD27 /// SNORD28 /// SNORD29 /// SNORD31 / Fold change (Aza/veh), C12orf56 (ProbeSet 11735607_a_at) / Fold change (ACY-1035/veh), C12orf56 (ProbeSet 11735607_a_at) / Fold change (Aza/veh), FGFR1OP (ProbeSet 11751329_s_at) / Fold change (ACY-1035/veh), FGFR1OP (ProbeSet 11751329_s_at) / Fold change (Aza/veh), VPS36 (ProbeSet 11739960_a_at) / Fold change (ACY-1035/veh), VPS36 (ProbeSet 11739960_a_at) / RFU SYPL1 (11715823_x_at) / Fold change /veh SYPL1 (11715823_x_at) / RFU IGFBP7 (11715501_s_at) / Fold change /veh IGFBP7 (11715501_s_at) / RFU REEP3 (11722064_at) / Fold change /veh REEP3 (11722064_at) / RFU IGLL1 (11728026_x_at) / Fold change /veh IGLL1 (11728026_x_at): dose or concentration left out as unconfirmed
# Details: ProbeSet 11758919_x_at; LIST D
structure (smiles),measurement,value
Nc1ccc(-c2cccs2)cc1NC(=O)c1ccc2c(c1)cc(C1CC1)n2CCN1CCOCC1 [ACY-1035],"Fold change vs veh, TFCP2",0.94
